Where a name gives a salt, the structure may show the parent alone.
biological target: human PDE10A (UniProt Q9Y233); test: Measurement of PDE activity (recombinant enzyme, HTRF cAMP kit); assay type: biochemical; settings: Table 1, substrate 20 nM for PDE10, 60 minutes at 29 C
Method in brief: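 HTRF detection of cAMP left after hydrolysis, expressed as percent of uninhibited control to derive IC50. Reaction: serially diluted inhibitor mixed with recombinant enzyme, started with 20 nM cAMP, 60 min at 29 °C in Tris-HCl pH 7.5 buffer containing MgCl2 and BSA.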

human PDE10A, sequence (Q9Y233 290-1055 limits assumed): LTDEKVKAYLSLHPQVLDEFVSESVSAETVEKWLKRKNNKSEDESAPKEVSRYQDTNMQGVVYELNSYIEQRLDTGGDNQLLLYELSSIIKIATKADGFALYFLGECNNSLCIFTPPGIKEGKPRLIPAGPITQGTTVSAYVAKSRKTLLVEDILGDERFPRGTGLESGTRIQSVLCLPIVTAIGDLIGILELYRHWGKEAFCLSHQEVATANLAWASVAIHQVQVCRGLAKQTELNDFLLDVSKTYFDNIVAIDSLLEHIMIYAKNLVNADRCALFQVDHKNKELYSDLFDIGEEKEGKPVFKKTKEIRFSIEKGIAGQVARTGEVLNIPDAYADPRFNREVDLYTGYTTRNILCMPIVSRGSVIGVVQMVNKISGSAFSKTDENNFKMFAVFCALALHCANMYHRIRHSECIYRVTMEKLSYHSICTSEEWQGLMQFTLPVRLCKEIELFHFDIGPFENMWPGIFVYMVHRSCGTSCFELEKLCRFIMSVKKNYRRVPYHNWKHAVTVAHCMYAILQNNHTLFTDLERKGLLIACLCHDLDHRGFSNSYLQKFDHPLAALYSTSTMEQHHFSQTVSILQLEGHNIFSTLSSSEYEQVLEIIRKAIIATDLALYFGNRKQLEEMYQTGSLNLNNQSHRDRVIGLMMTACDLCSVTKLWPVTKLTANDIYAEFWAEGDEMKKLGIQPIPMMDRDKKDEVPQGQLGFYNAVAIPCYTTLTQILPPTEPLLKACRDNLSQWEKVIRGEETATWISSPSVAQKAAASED

Compound | IC50
O=c1c2c(N3C4CCC3COC4)cccc2ccn1C1CC1c1ccc2ccccc2n1 [Example 263, anti 8-((1R,5S)-3-oxa-8-azabicyclo[3.2.1]octan-8-yl)-2-(2-(quinolin-2-yl)cyclopropyl)isoquinolin-1(2H)-one] | < 0.1 µM

same assay, conditions: Table 1, substrate 20 nM for PDE10, 60 minutes at 29 C, read-out: IC50

Compound | IC50
O=c1c2c(N3CC[C@@H](O)C3)cccc2ccn1C1CC1c1ccc2ccccc2n1 (stereo partly drawn) [Example 250, anti 8-((3R)-3-hydroxypyrrolidin-1-yl)-2-(2-(quinolin-2-yl)cyclopropyl)isoquinolin-1(2H)-one (2E)-but-2-enedioate] | 0.1 to 0.2 µM
O=c1c2c(-c3ccncc3)cccc2ccn1C1CC1c1ccc2ccccc2n1 (stereo not drawn) [Example 256, syn 8-(pyridin-4-yl)-2-(2-(quinolin-2-yl)cyclopropyl)isoquinolin-1(2H)-one hydrochloride] | < 0.1 µM
O=c1c2c(C3CCOCC3)cccc2ccn1C1CC1c1ccc2ccccc2n1 (stereo not drawn) [Example 257, anti 2-(2-(quinolin-2-yl)cyclopropyl)-8-(tetrahydro-2H-pyran-4-yl)isoquinolin-1(2H)-one] | < 0.1 µM
O=c1c2c(N3CCC(C(F)F)C3)cccc2ccn1C1CC1c1ccc2ccccc2n1 (stereo not drawn) [Example 262, anti 8-(3-(difluoromethyl)pyrrolidin-1-yl)-2-(2-(quinolin-2-yl)cyclopropyl)isoquinolin-1(2H)-one, trifluoroacetate] | 0.1 to 0.2 µM
O=c1c2c(N3C[C@H]4CC[C@@H](C3)O4)cccc2ccn1C1CC1c1ccc2ccccc2n1 (stereo partly drawn) [Example 266, 8-((1R,5S)-8-oxa-3-azabicyclo[3.2.1]octan-3-yl)-2-(2-(quinolin-2-yl)cyclopropyl)isoquinolin-1(2H)-one] | < 0.1 µM
O=c1c2c(C3=COCC3)cccc2ccn1C1CC1c1ccc2ccccc2n1 (stereo not drawn) [Example 269, anti 8-(4,5-dihydrofuran-3-yl)-2-(2-(quinolin-2-yl)cyclopropyl)isoquinolin-1(2H)-one] | < 0.1 µM
O=c1c2c(-c3cccnc3)cccc2ccn1C1CC1c1ccc2cc(F)ccc2n1 (stereo not shown) [Example 272] | < 0.1 µM
O=c1c2c(-c3ccncc3)cccc2ccn1C1CC1c1ccc2cc(F)ccc2n1 (stereo not shown) [Example 274] | < 0.1 µM
O=c1c2c(-c3ccncc3)cccc2c(F)cn1C1CC1c1ccc2ccccc2n1 (stereo not drawn) [Example 275, anti 4-fluoro-8-(pyridin-4-yl)-2-(2-(quinolin-2-yl)cyclopropyl)isoquinolin-1(2H)-one] | < 0.1 µM
O=c1c2c(-c3ccncc3)csc2c(F)cn1C1CC1c1ccc2ccccc2n1 (stereo not shown) [compound 279] | < 0.1 µM
O=c1c2c(-c3ccnc(F)c3)csc2ccn1C1CC1c1ccc2cc(F)ccc2n1 (stereo not shown) [compound 280] | < 0.1 µM
O=c1c2c(-c3ccncc3)csc2ccn1C1CC1c1ccc2cc(F)ccc2n1 (stereo not shown) [compound 281] | < 0.1 µM
O=c1c2c(-c3cncnc3)csc2ccn1C1CC1c1ccc2ccccc2n1 (stereo not shown) [compound 282] | < 0.1 µM
O=c1c2c(-c3ccc(F)nc3)csc2ccn1C1CC1c1ccc2ccccc2n1 (stereo not shown) [compound 283] | < 0.1 µM
Cc1ncc(-c2csc3ccn(C4CC4c4ccc5ccccc5n4)c(=O)c23)cn1 (stereo not shown) [compound 284] | < 0.1 µM
O=c1c2c(-c3ccnnc3)csc2ccn1C1CC1c1ccc2ccccc2n1 (stereo not shown) [compound 285] | < 0.1 µM

Compound | IC50
O=c1c2c(N3CCOCC3)csc2ccn1C1CC1c1ccc2ccccc2n1 (stereo not shown) [compound 287] | < 0.1 µM
O=c1c2c(-c3cccnc3)csc2ccn1C1CC1c1ccc2sccc2n1 (stereo not shown) [compound 288] | < 0.1 µM
O=c1c2c(-c3cccnc3)csc2ccn1C1CC1c1ccc2ccccc2n1 (stereo not shown) [compound 289] | < 0.1 µM
O=c1c2c(-c3cncnc3)csc2cnn1C1CC1c1ccc2ccccc2n1 (stereo not shown) [compound 290] | < 0.1 µM
O=c1c2c(-c3ccncc3)csc2cnn1C1CC1c1ccc2sccc2n1 (stereo not shown) [compound 291] | < 0.1 µM
O=c1c2c(-c3ccncc3)csc2ccn1C1CC1c1ccc2sccc2n1 (stereo not shown) [compound 292] | < 0.1 µM
O=c1c2c(-c3ccncc3)csc2ccn1C1CC1c1ccc2ccccc2n1 (stereo not shown) [compound 293] | < 0.1 µM
O=c1c2c(-c3ccncc3)csc2cnn1C1CC1c1ccc2ccccc2n1 (stereo not shown) [compound 295] | < 0.1 µM
O=c1c2cccc(-c3cncnc3)c2ccn1C1CC1c1ccc2ccccc2n1 (stereo not shown) [compound 296] | 0.1 to 0.2 µM
O=c1c2cccc(-c3ccncc3)c2ccn1C1CC1c1ccc2ccccc2n1 (stereo not shown) [compound 297] | < 0.1 µM
O=c1c2cccc(-c3cccnc3)c2ccn1C1CC1c1ccc2ccccc2n1 (stereo not shown) [compound 298] | 0.1 to 0.2 µM
O=c1c2cccc(N3CCOCC3)c2ccn1C1CC1c1ccc2ccccc2n1 (stereo not shown) [compound 299] | < 0.1 µM
Cc1cc2ccccc2nc1CCn1ccc2scc(-c3ccncc3)c2c1=O [compound 306, 5-[2-(3-methylquinolin-2-yl)ethyl]-3-(pyridin-4-yl)thieno[3,2-c]pyridin-4(5H)-one] | < 0.1 µM
O=c1c2c(-c3ccncc3)csc2ccn1CCc1ccc2cc(F)ccc2n1 [compound 309, 5-[2-(6-fluoroquinolin-2-yl)ethyl]-3-(pyridin-4-yl)thieno[3,2-c]pyridin-4(5H)-one] | < 0.1 µM
Cc1cnc(CCn2ncc3scc(-c4ccncc4)c3c2=O)c(C)c1 [compound 321, 5-[2-(3,5-dimethylpyridin-2-yl)ethyl]-3-(pyridin-4-yl)thieno[2,3-d]pyridazin-4(5H)-one] | 0.1 to 0.2 µM

Results, then the molecule that gave them:

IC50 | Compound
< 0.1 µM | O=c1c2c(-c3ccoc3)cccc2ccn1C1CC1c1ccc2ccccc2n1 (stereo not drawn) [Example 268, anti 8-(furan-3-yl)-2-(2-(quinolin-2-yl)cyclopropyl)isoquinolin-1(2H)-one]
< 0.1 µM | O=c1c2c(-c3ccncc3)cncc2cnn1CCc1ccc2ccccc2n1 [Example 301, 8-(pyridin-4-yl)-2-[2-(quinolin-2-yl)ethyl]pyrido[3,4-d]pyridazin-1(2H)-one]
< 0.1 µM | Cn1cnc(-c2nn(CCc3cn4ccccc4n3)c(=O)c3c(-c4ccncc4)csc23)c1 [compound 302, 5-[2-(imidazo[1,2-a]pyridin-2-yl)ethyl]-7-(1-methyl-1H-imidazol-4-yl)-3-(pyridin-4-yl)thieno[2,3-d]pyridazin-4(5H)-one]
< 0.1 µM | Cn1cc(-c2nn(CCc3cn4ccccc4n3)c(=O)c3c(-c4ccncc4)csc23)cn1 [compound 303, 5-[2-(imidazo[1,2-a]pyridin-2-yl)ethyl]-7-(1-methyl-1H-pyrazol-4-yl)-3-(pyridin-4-yl)thieno[2,3-d]pyridazin-4(5H)-one]
< 0.1 µM | O=c1c2c(-c3ccncc3)csc2c(-c2cccnc2)nn1CCc1cn2ccccc2n1 [compound 304, 5-[2-(imidazo[1,2-a]pyridin-2-yl)ethyl]-7-(pyridin-3-yl)-3-(pyridin-4-yl)thieno[2,3-d]pyridazin-4(5H)-one]
0.2 to 0.5 µM | O=c1c2c(-c3ccncc3)csc2ccn1CCc1ccc2cccc(F)c2n1 [compound 307, 5-[2-(8-fluoroquinolin-2-yl)ethyl]-3-(pyridin-4-yl)thieno[3,2-c]pyridin-4(5H)-one]
< 0.1 µM | O=c1c2c(-c3cccnc3)csc2ccn1CCc1ccc2cc(F)ccc2n1 [compound 308, hydrochloride]
< 0.1 µM | O=c1c2c(-c3cccnc3)csc2ccn1CCc1cn2ccccc2n1 [compound 310, 5-[2-(imidazo[1,2-a]pyridin-2-yl)ethyl]-3-(pyridin-3-yl)thieno[3,2-c]pyridin-4(5H)-one]
0.1 to 0.2 µM | O=c1c2c(-c3ccncc3)csc2cnn1CCc1cnc2ccccc2n1 [compound 311, hydrochloride]
< 0.1 µM | O=c1c2c(-c3ccncc3)csc2cnn1CCc1ccc2ncccc2n1 [compound 312, 5-[2-(1,5-naphthyridin-2-yl)ethyl]-3-(pyridin-4-yl)thieno[2,3-d]pyridazin-4(5H)-one]
< 0.1 µM | O=c1c2c(-c3cc[nH]n3)csc2cnn1CCc1ccc2ccccc2n1 [compound 315, 3-(1H-pyrazol-3-yl)-5-[2-(quinolin-2-yl)ethyl]thieno[2,3-d]pyridazin-4(5H)-one]
< 0.1 µM | O=c1c2c(-c3ccncc3)csc2cnn1CCc1nc2ccccc2[nH]1 [compound 317, hydrochloride]
0.2 to 0.5 µM | O=c1c2c(-c3ccncc3)csc2cnn1CCc1ccc2cc(Cl)ccc2n1 [compound 318, hydrochloride]
< 0.1 µM | O=c1c2c(C#Cc3cccnc3)csc2cnn1CCc1ccc2ccccc2n1 [compound 319, hydrochloride]
0.2 to 0.5 µM | O=c1c2c(C#Cc3ccncc3)csc2cnn1CCc1ccc2ccccc2n1 [compound 320, hydrochloride]
0.2 to 0.5 µM | O=c1c2c(-c3ccncc3)csc2cnn1CCc1ccc2ccc(F)cc2n1 [compound 322, 5-[2-(7-fluoroquinolin-2-yl)ethyl]-3-(pyridin-4-yl)thieno[2,3-d]pyridazin-4(5H)-one]
< 0.1 µM | Cc1cc2ccccc2nc1CCn1ccc2cccc(-c3ccncc3)c2c1=O [compound 327, 2-[2-(3-methylquinolin-2-yl)ethyl]-8-(pyridin-4-yl)isoquinolin-1(2H)-one]
0.2 to 0.5 µM | O=c1c2c(-c3cc[nH]n3)cccc2cnn1CCc1cn2ccccc2n1 [compound 328, 2-[2-(imidazo[1,2-a]pyridin-2-yl)ethyl]-8-(1H-pyrazol-3-yl)phthalazin-1(2H)-one]
< 0.1 µM | O=c1c2c(N3CCOCC3)cccc2cnn1CCc1ccc2ccccc2n1 [compound 329, hydrochloride]
0.2 to 0.5 µM | O=c1c2c(N3CCCC4(CC3)CNCCO4)cccc2cnn1CCc1cn2ccccc2n1 (stereo not shown) [compound 330, dihydrochloride]
0.2 to 0.5 µM | O=c1c2c(N3CCC[C@@H](O)C3)cccc2cnn1CCc1cn2ccccc2n1 [compound 332]
< 0.1 µM | O=c1c2c(N3CCC[C@H](O)C3)cccc2cnn1CCc1cn2ccccc2n1 [compound 333]
0.1 to 0.2 µM | O=c1c2c(N3CC4(COC4)C3)cccc2cnn1CCc1cn2ccccc2n1 [compound 334, 2-[2-(imidazo[1,2-a]pyridin-2-yl)ethyl]-8-(2-oxa-6-azaspiro[3.3]hept-6-yl)phthalazin-1(2H)-one]
